Results from US10952963B2, “Ready to use liquid RECK formulation” (QuVa Pharma, Inc., priority 2018, dated 2021).

Settings: for pH that provides for acceptable stability: pH 4.8
Method: Multiple antioxidants, chelating agents, and buffers were evaluated to stabilize both epinephrine and ketorolac, which include: sodium bisulfite, sodium metabisulfite, EDTA Sodium Dihydrate (i.e., EDTA Sodium), citric acid, sodium phosphate dibasic, and PEG 400. Solution pH values were evaluated from a pH of 3.9-6.0.

Row | Compound | pH range of maximum stability | pH at which rate of degradation increases | pH at which substance tended to degrade | sodium metabisulfite concentration in the presence of which the substance degrades substantially | pH that provides for acceptable stability | pH at which substantial degradation occurs
1 | Clc1cccc(Cl)c1N=C1NCCN1 [clonidine] | 3-4 | – | – | – | – | –
2 | O=C(c1ccccc1)c1ccc2n1CCC2C(=O)O (stereo not shown) [ketorolac] | 6-7 | less than 5 | less than 4.5 | ≥ 1 mg/mL | about 4.8 | –
3 | CCCN1CCCC[C@H]1C(=O)Nc1c(C)cccc1C [ropivacaine] | 3-4 | – | – | – | – | –
4 | CNC[C@H](O)c1ccc(O)c(O)c1 [epinephrine] | 3-4 | – | – | – | about 4.8 | greater than 4
